Data as given in US20220259593A1, “CONTROL OF MAMMALIAN GENE DOSAGE USING CRISPR” (The Regents of the University of California, priority 2019, published 2022).

Legend:
K562 CRISPRi cells [1] = test: Perturb-seq pooled growth measurement (sgRNA counts, growth phenotype γ, relative activity); format: cell-based, human; details: γ relative to perfectly matched sgRNA (_00) of the same gene, day 10
K562 CRISPRi cells [2] = test: as above; format: cell-based, human; details: for gamma_day5 / gamma_day10: pooled growth phenotype γ of the Perturb-seq sgRNA; for gamma_day5: day 5, K562 CRISPRi cells; for gamma_day10: day 10, K562 CRISPRi cells; for relative_activity_day5: γ relative to perfectly matched sgRNA (_00) of the same gene, day 5
Summary of the method: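 sgRNA abundance was sequenced from genomic DNA of the same transduced population sampled on days two, seven and twelve. Phenotype γ compares normalized day seven and twelve counts with day two. Day-seven values (five days of growth) define relative sgRNA activity.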

Row | Substance | relative_activity_day10 (K562 CRISPRi cells [1]) | gamma_day5 (K562 CRISPRi cells [2]) | gamma_day10 (K562 CRISPRi cells [2]) | relative_activity_day5 (K562 CRISPRi cells [2])
1 | RPS14_ + _149829238.23-P1P2_01 (guide GAGACCCGGGCGCGACAATC; listed as DNA, chemistry not fully specified) | 0.9624 | −0.7548 | −0.4807 | 0.9545
2 | RPS14_ + _149829238.23-P1P2_02 (guide GAGGCCCTGGCGCGACAATC; listed as DNA, chemistry not fully specified) | 0.7666 | −0.5845 | −0.3829 | 0.739
3 | RPS14_ + _149829238.23-P1P2_04 (guide GAGGCCCGCGCGCGACAATC; listed as DNA, chemistry not fully specified) | 0.3919 | −0.3025 | −0.1958 | 0.3825
4 | RPS14_ + _149829238.23-P1P2_08 (guide GAGGCCCGGGCTCGACAATC; listed as DNA, chemistry not fully specified) | 0.001223 | 0.02738 | −0.0006109 | −0.03462
5 | RPS14_ + _149829238.23-P1P2_13 (guide GAGGCCCGGGCGCGACAGTC; listed as DNA, chemistry not fully specified) | 0.3122 | −0.2119 | −0.1559 | 0.268
6 | RPS15_ −_1438413.23-P1P2_00 (guide GACCAAAGCGATCTCTTCTG; listed as DNA, chemistry not fully specified) | 1 | −0.6212 | −0.376 | 1
7 | RPS15_ −_1438413.23-P1P2_01 (guide GACCAAACCGATCTCTTCTG; listed as DNA, chemistry not fully specified) | −0.003782 | 0.006616 | 0.001422 | −0.01064
8 | RPS15_ −_1438413.23-P1P2_02 (guide GACCAAGGCGATCTCTTCTG; listed as DNA, chemistry not fully specified) | 0.8366 | −0.4922 | −0.3145 | 0.7923
9 | RPS15_ −_1438413.23-P1P2_07 (guide GACCAAAGCGGTCTCTTCTG; listed as DNA, chemistry not fully specified) | 0.8176 | −0.5221 | −0.3074 | 0.8404
10 | RPS15_ −_1438413.23-P1P2_12 (guide GACCAAAGCGATCTCTTGTG; listed as DNA, chemistry not fully specified) | 0.03119 | 0.0311 | 0.01173 | 0.05005
11 | RPS18_ + _33239917.23-P1P2_00 (guide GCTGCGATGCCGCTGGATCA; listed as DNA, chemistry not fully specified) | 1 | −0.8169 | −0.503 | 1
12 | RPS18_ + _33239917.23-P1P2_01 (guide GCTGCAATGCCGCTGGATCA; listed as DNA, chemistry not fully specified) | 0.7514 | −0.5598 | −0.3779 | 0.6853
13 | RPS18_ + _33239917.23-P1P2_02 (guide GCTGGGATGCCGCTGGATCA; listed as DNA, chemistry not fully specified) | 0.6345 | −0.4898 | −0.3191 | 0.5995
14 | RPS18_ + _33239917.23-P1P2_04 (guide GCTGCGATCCCGCTGGATCA; listed as DNA, chemistry not fully specified) | 0.1604 | −0.08697 | −0.08068 | 0.1065
15 | RPS18_ + _33239917.23-P1P2_08 (guide GCTGCGATTCCGCTGGATCA; listed as DNA, chemistry not fully specified) | 0.3255 | −0.2228 | −0.1637 | 0.2727
16 | SEC61A1_ −_127771295.23-P1_00 (guide GGCACTGACGTGTCTCTCGG; listed as DNA, chemistry not fully specified) | 1 | −0.92 | −0.5629 | 1
17 | SEC61A1_ −_127771295.23-P1_01 (guide GGCACTGTCGTGTCTCTCGG; listed as DNA, chemistry not fully specified) | 0.5184 | −0.4191 | −0.2918 | 0.4556
18 | SEC61A1_ −_127771295.23-P1_02 (guide GGCGCTGACGTGTCTCTCGG; listed as DNA, chemistry not fully specified) | 0.7203 | −0.6451 | −0.4055 | 0.7012
19 | SEC61A1_ −_127771295.23-P1_03 (guide GGTACTGACGTGTCTCTCGG; listed as DNA, chemistry not fully specified) | 0.6074 | −0.5031 | −0.3419 | 0.5469
20 | SEC61A1_ −_127771295.23-P1_04 (guide GGCACTGAAGTGTCTCTCGG; listed as DNA, chemistry not fully specified) | 0.2049 | −0.1539 | −0.1153 | 0.1673
21 | TUBB_ + _30688126.23-P1_00 (guide GCGGCAGGAAGGTTCTGAGA; listed as DNA, chemistry not fully specified) | 1 | −0.897 | −0.6999 | 1
22 | TUBB_ + _30688126.23-P1_01 (guide GCAGCAGGAAGGTTCTGAGA; listed as DNA, chemistry not fully specified) | 0.8743 | −0.926 | −0.6119 | 1.032
23 | TUBB_ + _30688126.23-P1_03 (guide GCGGCAGCAAGGTTCTGAGA; listed as DNA, chemistry not fully specified) | 0.7085 | −0.6926 | −0.4959 | 0.7721
24 | TUBB_ + _30688126.23-P1_06 (guide GCGGCAGGACGGTTCTGAGA; listed as DNA, chemistry not fully specified) | 0.7922 | −0.7308 | −0.5544 | 0.8147
25 | TUBB_ + _30688126.23-P1_10 (guide GCGGCAGGAAGGTTCAGAGA; listed as DNA, chemistry not fully specified) | 0.2073 | −0.1978 | −0.1451 | 0.2205
